The results in this text go back to ChEMBL document CHEMBL1156485, “Distinct structural changes in a G protein-coupled receptor caused by different classes of agonist ligands” (J Biol Chem, 2007).

Each structure is given as a SMILES string. The source made the active and inactive calls. No cut-off for these calls is given here.

Test [1] deals with Muscarinic acetylcholine receptor M3 (Rattus norvegicus), P08483 [A91C,T549C]. Description: Inhibition of disulfide bond cross-linking in rat M3'(3C)-Xa receptor A91C/T549C mutant expressed in african green monkey COS7 cells at 1 mM by Western blotting. The class given is cell-based. Conditions: COS-7. Background: A western blot detects proteins with antibodies after separation by electrophoresis.
Chain of Muscarinic acetylcholine receptor M3 (Rattus norvegicus), P08483 [A91C,T549C] (P08483 whole entry A91C/T549C): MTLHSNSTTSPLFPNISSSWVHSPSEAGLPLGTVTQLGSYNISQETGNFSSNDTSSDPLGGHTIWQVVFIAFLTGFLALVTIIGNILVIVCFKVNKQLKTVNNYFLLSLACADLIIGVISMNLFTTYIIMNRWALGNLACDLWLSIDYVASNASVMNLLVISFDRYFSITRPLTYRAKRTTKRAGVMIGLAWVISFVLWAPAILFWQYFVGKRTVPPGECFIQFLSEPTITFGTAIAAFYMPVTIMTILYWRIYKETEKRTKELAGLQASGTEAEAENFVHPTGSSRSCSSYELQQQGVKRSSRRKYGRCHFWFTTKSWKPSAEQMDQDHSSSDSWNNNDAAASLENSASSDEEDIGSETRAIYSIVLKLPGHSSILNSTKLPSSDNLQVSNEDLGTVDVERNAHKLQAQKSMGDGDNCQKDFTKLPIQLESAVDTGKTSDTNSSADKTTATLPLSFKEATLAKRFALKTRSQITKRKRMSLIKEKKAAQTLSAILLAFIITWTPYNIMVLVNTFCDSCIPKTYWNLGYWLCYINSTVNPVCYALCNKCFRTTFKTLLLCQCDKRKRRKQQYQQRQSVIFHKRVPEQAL

Test [2] is described as follows: Agonist activity at rat M3'(3C)-Xa receptor expressed in african green monkey COS7 cells assessed as increase in myo-[3H]inositol hydrolysis. The class given is functional, cell-based. The following applies: COS-7.
For test [3], the system named is Muscarinic acetylcholine receptor M3 (Rattus norvegicus), P08483 [F92C,F550C]. Description: Inhibition of disulfide bond cross-linking in rat M3'(3C)-Xa receptor F92C/F550C mutant expressed in african green monkey COS7 cells at 1 mM by Western blotting. The class given is cell-based. Conditions: COS-7.
Chain of Muscarinic acetylcholine receptor M3 (Rattus norvegicus), P08483 [F92C,F550C] (P08483 whole entry F92C/F550C): as the sequence (P08483 whole entry A91C/T549C) above, with C91A, F92C, C549T, F550C counted along it
Test [4] is described as follows: Displacement of [3H]NMS from rat M3'(3C)-Xa receptor expressed in african green monkey COS7 cells. The class given is cell-based. The following applies: cos-7.
Test [5] deals with Muscarinic acetylcholine receptor M3 (Rattus norvegicus), P08483 [F92C,F550C]. Description: Inverse agonist activity at rat M3'(3C)-Xa receptor F92C/F550C mutant expressed in african green monkey COS7 cells assessed as reduction in basal inositol monophosphate accumulation at 10 uM. The class given is functional, cell-based. Conditions: COS-7.
The test system of test [6] is Muscarinic acetylcholine receptor M3 (Rattus norvegicus), P08483 [A91C,T549C]. As to the kind of experiment: Stimulation of disulfide bond cross-linking formation in rat M3'(3C)-Xa receptor A91C/T549C mutant expressed in african green monkey COS7 cells by scanning densitometry relative to control. Conditions: COS-7. The class given is cell-based.
The test system is the same in test [7]. Description: Enhancement of disulfide bond cross-linking formation in rat M3'(3C)-Xa receptor A91C/T549C mutant expressed in african green monkey COS7 cells at 100 nM by Western blotting. Conditions: COS-7. The class given is cell-based.
The next test has as its system COS-7. Description: Inverse agonist activity at rat M3'(3C)-Xa receptor expressed in african green monkey COS7 cells assessed as reduction in basal inositol monophosphate accumulation at 10 uM. The class given is functional, cell-based.
Test [8] has as its system Muscarinic acetylcholine receptor M3 (Rattus norvegicus), P08483 [F92C,F550C]. As to the kind of experiment: Stimulation of disulfide bond cross-linking formation in rat M3'(3C)-Xa receptor F92C/F550C mutant expressed in african green monkey COS7 cells by scanning densitometry relative to control. The class given is cell-based. Conditions: COS-7.
Test [9] has as its system Muscarinic acetylcholine receptor M3 (Rattus norvegicus), P08483 [A91C,T549C]. As to the kind of experiment: Inverse agonist activity at rat M3'(3C)-Xa receptor A91C/T549C mutant expressed in african green monkey COS7 cells assessed as reduction in basal inositol monophosphate accumulation at 10 uM. The following applies: COS-7. The class given is functional, cell-based.

Test [10] deals with Muscarinic acetylcholine receptor M3 (Rattus norvegicus), P08483 [F92C,F550C]. Description: Enhancement of disulfide bond cross-linking formation in rat M3'(3C)-Xa receptor F92C/F550C mutant expressed in african green monkey COS7 cells at 100 nM by Western blotting. The class given is cell-based. Conditions: COS-7.

Turning to `C[N+](C)(C)CCOC(N)=O` [CARBACHOL], the outcome in test [1] and in [3] was Active. The EC50 (in general, the concentration at which the effect is half-maximal) in test [2] stood at 0.063 µM. In addition, in [4], the Ki (usually the dissociation constant of the complex between target and ligand, obtained from inhibition or displacement) came out at 23.1 µM.

In the case of `C[N+]1(C)[C@@H]2C[C@@H](OC(=O)[C@H](CO)c3ccccc3)C[C@H]1[C@@H]1O[C@@H]12`, the result (in [5]; in test [7]; in the test on COS-7; in test [9]; in [10]) was Active. Further, the Emax (as a rule, the maximal effect, on the per cent scale that the assay sets) in test [6] worked out at 244%; in test [8], 192%.

As to `CN1[C@@H]2CC[C@H]1C[C@@H](OC(=O)C(CO)c1ccccc1)C2` (stereo partly specified), the result (in [7]; in the test with COS-7; in test [10]) was Active.

Consider `C[N+](C)(C)CC#CCN1CCCC1=O`, for which the result in [1] and in test [3] was Active.
